Patent US12150972B1, “Egg white protein anti-inflammatory peptide and application thereof” (Hangzhou BIBAU Biotechnology Co., Ltd., priority 2023, dated 2024)
Peptide text beside a SMILES is read from it.

Columns and labels:
[1] = in vitro; conditions: mouse, RAW264.7 macrophage cells induced by LPS, cell viability
Experimental: The cell viability of RAW264.7 cells was determined by MTT method. RAW264.7 cells in the logarithmic growth phase were seeded in a 96-well plate at 100 μL/well with a density of 4×10^4/well. The outermost layer of the 96-well plate was sealed by PBS solution, and the 96-well plate was transferred to an incubator for culturing for 12 to 24 hours. The incubator temperature was 37° C. and the CO2 concentration was 5%. After the cells adhered to the wall, the waste supernatant was extracted from the 96-well plate. A blank group (added with 100 μL of culture medium), an LPS group (added with 100 μL of LPS with a final mass concentration of 1 μg/mL), and a sample group (added with 100 μL of peptides with different or the same mass concentration and added with LPS with a final mass concentration of 1 μg/mL after 2 hours of reaction) were set, and each group was performed in triplicate. After culturing for 24 hours, 20 μL of MTT solution with a concentration of 5 mg/mL was added into each well. After continuing to culture in the incubator for 4 hours, 100 μL of dimethyl sulfoxide (DMSO) was added and shaken gently for 10 min. The absorbance value at 570 nm was measured with a microplate reader, and the cell viability (%) was calculated according to the formula (1).
In the formula (1), V refers to the cell viability (%), A1 is the absorbance value of the blank group at 570 nm, and A2 is the absorbance value of the sample group at 570 nm.

[2] = system: TNF-α secretion in RAW264.7 cells induced by LPS; assay: TNF-α secretion in LPS-induced RAW264.7 cells (ELISA); format: cell-based, mouse; conditions: RAW264.7 induced by LPS; sample 500 μg/mL
Experimental: (§1) The three groups were cultured in the incubator for 24 hours, and the supernatants were collected. According to the instructions of the ELISA kit, the absorbance value at 450 nm was measured and the secretion amounts of inflammatory factors TNF-α, IL-6 and IL-1β were calculated. The inhibition ratios of the three inflammatory factors were calculated by formula (3).
(§2) In the formula, C refers to the inhibition ratio (%) of inflammatory factors, Co is the secretion amount of inflammatory factors in the blank group, C1 is the secretion amount of inflammatory factors in the LPS group, and C2 is the secretion amount of inflammatory factors in the sample group.

[3] = system: NO production in RAW264.7 cells induced by LPS; assay: NO production amount in LPS-induced RAW264.7 cells (Griess method); format: cell-based, mouse; conditions: for NO production amount: RAW264.7 induced by LPS 1 μg/mL
Experimental: The NO production amount in the cell was measured by Griess method. The grouping, treatment and culture methods were the same as 1.2. After 24 hours of culture, the supernatant was collected and the NO production amount was measured using a NO detection kit. 50 μL of cell supernatant, 50 μL of Griess I reagent, and 50 μL of Griess II reagent were mixed, and stood for 5 minutes, and then the absorbance value at 540 nm was measured. According to the instructions of the NO kit, the NO production amount in each sample was calculated, and the inhibition ratio of NO production amount is calculated by formula (2).
In the formula, B refers to the NO inhibition ratio (%), B0 is the NO production amount of the blank group, B1 is the NO production amount of the LPS group, and B2 is the NO production amount of the sample group.

[4] = system: IL-1β secretion in RAW264.7 cells induced by LPS; assay: IL-1β secretion in LPS-induced RAW264.7 cells (ELISA); format: cell-based, mouse; conditions: RAW264.7 induced by LPS; sample 500 μg/mL
Experimental: as §1, §2

[5] = system: IL-6 secretion in RAW264.7 cells induced by LPS; assay: IL-6 secretion in LPS-induced RAW264.7 cells (ELISA); format: cell-based, mouse; conditions: RAW264.7 induced by LPS; sample 500 μg/mL
Experimental: as §1, §2

In the case of `N[C@@H](Cc1ccccc1)C(=O)NCC(=O)N1CCC[C@H]1C(=O)N[C@@H](Cc1c[nH]cn1)C(=O)O` [FGPH, Phe-Gly-Pro-His] (H-FGPH-OH), the viability at 24 h, 125 µg/mL [1] is reported as > 109%, the viability at 24 h, 250 µg/mL [1] is reported as > 109% and the viability at 24 h, 500 µg/mL [1] is reported as > 109%. The viability at 24 h, 1000 µg/mL [1] was < 97%, the “inhibition ratio of TNF-α secretion” value [2] was 28.07±2.10% and the NO production amount ([3]; sample 125 μg/mL) was 18.07 ± 0.31 µM. The NO production amount ([3]; sample 250 μg/mL) was 16.23 ± 0.31 µM, the NO production amount ([3]; sample 500 μg/mL) was 13.82 ± 0.31 µM and the “inhibition ratio of NO production amount” value ([3]; RAW264.7 induced by LPS, sample 500 μg/mL) was 64.41±0.47%. For the same molecule, the “inhibition ratio of IL-1β secretion” value [4] was 52.43±2.29% and the “inhibition ratio of IL-6 secretion” value [5] was 41.72±1.83%.
